The target of assay [1] is MLK1 (Homo sapiens, UniProt P80192). As to the kind of experiment: IC50 on recombinant MLK1. As to conditions: Fig 5B / Appendix Fig S1B, recombinant kinase, unit inferred. It counts as biochemical. How it is done: (§1) The result for each kinase is presented as a mean kinase activity of the reaction taken in triplicate relative to a control reaction where the inhibitors were omitted. […] SGK3 was immunoprecipitated from cell lysates and subjected to in vitro kinase assay by measuring phosphorylation of the Crosstide substrate peptide in the presence of 0.1 mM [γ‐^32P]ATP in a 30 min 30°C reaction (upper panel). Kinase reactions are presented as means ± SD for triplicate reaction.
(§2) Appendix Figure S1. […] (A) Chemical struc tures of
(§3) Sano/f_i-14g, -14i and -14n compounds. (B) IC50 values of inhibitors on indicated recombinant k inases. […]

The target in assay [2] is T1, SGK3 (Homo sapiens, UniProt Q96BR1).
T1 sequence (Q96BR1 1-496): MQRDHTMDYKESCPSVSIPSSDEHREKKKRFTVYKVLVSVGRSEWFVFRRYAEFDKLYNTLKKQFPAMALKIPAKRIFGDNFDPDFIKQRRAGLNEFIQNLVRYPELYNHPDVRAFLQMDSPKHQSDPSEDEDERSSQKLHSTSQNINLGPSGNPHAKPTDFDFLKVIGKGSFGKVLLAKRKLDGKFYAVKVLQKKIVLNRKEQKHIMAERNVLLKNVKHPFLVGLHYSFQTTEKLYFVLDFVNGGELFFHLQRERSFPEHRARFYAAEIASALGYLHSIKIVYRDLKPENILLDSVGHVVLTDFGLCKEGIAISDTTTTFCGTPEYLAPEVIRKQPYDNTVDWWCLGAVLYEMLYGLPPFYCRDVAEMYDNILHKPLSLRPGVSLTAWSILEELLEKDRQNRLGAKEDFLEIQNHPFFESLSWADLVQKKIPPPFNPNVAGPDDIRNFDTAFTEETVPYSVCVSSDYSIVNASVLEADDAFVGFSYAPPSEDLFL
As to the kind of experiment: IC50 on recombinant SGK3. It counts as biochemical. As to conditions: recombinant kinase. As to the method:
as §1, §2, §3

In assay [3] the target is PKBa (Homo sapiens, UniProt P31749). In words: IC50 on recombinant PKBa (Akt1). It counts as biochemical. The settings on record: Fig 5B / Appendix Fig S1B, recombinant kinase, unit inferred. As to the method: as §1, §2, §3
Assay [4] deals with T1, SGK3. In words: Immunoprecipitated endogenous SGK3 kinase activity (Crosstide) and SGK3 phosphorylation from treated cells. It counts as cell-based. Also on record: we immunoprecipitated endogenous SGK3 and assessed protein kinase activity; endogenous in cells; host or cells: ZR-75-1. As to conditions: 1 h, ZR-75-1 cells. As to the method: Briefly, SGK3, Akt and S6K1 were immunoprecipitated from 1 mg ZR‐75‐1 cell lysate. Immunoprecipitates were washed in sequence with lysis buffer containing high salt concentration (500 mM NaCl), lysis buffer and Buffer A (50 mM Tris pH 7.5, 0.1 mM EGTA). Kinase activity was assessed by measuring [γ‐^32P]ATP incorporation into Crosstide substrate peptide [[…]]. The reactions were carried in 40 μl total volume containing 0.1 mM [γ‐^32P]ATP (400–1,000 cpm/pmol), 10 mM magnesium acetate and 30 μM Crosstide peptide. Reactions were terminated by adding 10 μl 0.1 M EDTA and spotting 40 μl of the resulting reaction mix on P81 paper, which were immediately immersed into 50 mM orthophosphoric acid. Papers were washed at least five times in 50 mM orthophosphoric acid, rinsed in acetone and air‐dried. Radioactivity was quantified by Cerenkov counting. One unit of enzyme activity was defined as amount of enzyme that catalyses incorporation of 1 nmol of [γ‐^32P]ATP into the substrate over 1 min.

Assay [5] has as its target S6K1 (Homo sapiens, UniProt P23443). In words: IC50 on recombinant S6K1 (p70S6K). It counts as biochemical. The settings on record: Fig 5B / Appendix Fig S1B, recombinant kinase, unit inferred. How it is done: as §1, §2, §3
Assay [6] deals with MLK3 (Homo sapiens, UniProt Q16584). In words: IC50 on recombinant MLK3. The assay is classed as biochemical. The settings on record: Fig 5B / Appendix Fig S1B, recombinant kinase, unit inferred. As to the method:
as §1, §2, §3

For assay [7], the system named is BT-474 xenograft tumours. As to the kind of experiment: Cleaved caspase-3 immunohistochemistry of xenograft tumours. It counts as in vivo, mice. The settings on record: end of treatment, 4 h after last dosage. As to the method: Figure 8 Dual treatment with Akt and SGK inhibitors reduces tumour growth in BT‐474 xenograft model • BT‐474 cells were treated for the indicated times with 0.3 μM MK‐2206. The cell lysates were analysed by immunoblot using the indicated antibodies. • BT‐474c cells were treated with inhibitors as indicated either as monotherapy or in combination and cell confluency measured on the Incucyte ZOOM every 4 h for up to 4 weeks. • BT‐474 cells were injected subcutaneously into athymic Foxn1 ^nu nude mice. […] The tumour volume was measured twice a week. Tumour growth is represented as the fold change mean ± SEM. • All mice were weighed at the end of the treatments. […] Apoptotic cells were counted in 25 fields per condition (left panel) and quantified as clCasp3‐positive cells/field (right panel). […] Six different tumours were analysed from each treatment group and each line represents one tumour sample. […]
Experiments involving mice were in accordance with Institutional Guidelines of Memorial Sloan Kettering Cancer Center (Protocol number 12‐10‐019). […] When tumours reached a volume of ~150 mm^3, mice were randomised, treated, and tumours were measured twice a week. Tumour volume was determined using the following formula: (length × width^2) ÷ 2. […]

A value given as a limit tells only on which side of the number the result lay.

Data on two compounds can be found in paper PMC5007552, “The hVps34‐SGK3 pathway alleviates sustained PI3K/Akt inhibition by stimulating mTORC1 and tumour growth” (The EMBO Journal, 2016).

The term IC50 denotes the concentration at which inhibition is half-maximal.

Chain of PKBa (P31749 whole entry): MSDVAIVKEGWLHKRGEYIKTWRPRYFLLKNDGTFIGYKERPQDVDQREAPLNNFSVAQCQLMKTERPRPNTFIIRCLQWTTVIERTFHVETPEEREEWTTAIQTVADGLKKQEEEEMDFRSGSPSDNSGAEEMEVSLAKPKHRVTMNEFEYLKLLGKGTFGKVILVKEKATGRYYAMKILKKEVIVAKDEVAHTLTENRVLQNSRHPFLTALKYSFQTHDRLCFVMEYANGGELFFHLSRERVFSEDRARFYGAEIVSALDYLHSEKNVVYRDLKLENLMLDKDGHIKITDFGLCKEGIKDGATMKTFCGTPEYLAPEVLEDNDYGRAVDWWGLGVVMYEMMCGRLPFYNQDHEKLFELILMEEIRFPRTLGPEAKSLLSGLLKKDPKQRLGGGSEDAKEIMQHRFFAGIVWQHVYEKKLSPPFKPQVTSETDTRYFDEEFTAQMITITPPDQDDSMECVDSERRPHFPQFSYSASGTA
Chain of S6K1 (P23443 whole entry): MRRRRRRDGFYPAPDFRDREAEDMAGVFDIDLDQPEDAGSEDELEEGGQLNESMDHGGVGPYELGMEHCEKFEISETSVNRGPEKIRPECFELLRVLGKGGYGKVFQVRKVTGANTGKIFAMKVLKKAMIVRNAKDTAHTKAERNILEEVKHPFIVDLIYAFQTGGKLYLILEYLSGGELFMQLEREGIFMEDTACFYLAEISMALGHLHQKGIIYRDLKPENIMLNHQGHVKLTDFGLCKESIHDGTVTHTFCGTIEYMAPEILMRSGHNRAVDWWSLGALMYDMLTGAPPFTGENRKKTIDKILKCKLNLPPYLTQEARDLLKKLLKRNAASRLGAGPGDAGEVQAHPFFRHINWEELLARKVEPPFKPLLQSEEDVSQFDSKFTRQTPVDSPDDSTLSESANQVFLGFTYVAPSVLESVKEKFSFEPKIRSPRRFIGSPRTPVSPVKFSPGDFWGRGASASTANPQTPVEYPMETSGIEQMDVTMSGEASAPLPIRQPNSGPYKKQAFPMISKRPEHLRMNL
Chain of MLK1 (P80192 whole entry, species assumed): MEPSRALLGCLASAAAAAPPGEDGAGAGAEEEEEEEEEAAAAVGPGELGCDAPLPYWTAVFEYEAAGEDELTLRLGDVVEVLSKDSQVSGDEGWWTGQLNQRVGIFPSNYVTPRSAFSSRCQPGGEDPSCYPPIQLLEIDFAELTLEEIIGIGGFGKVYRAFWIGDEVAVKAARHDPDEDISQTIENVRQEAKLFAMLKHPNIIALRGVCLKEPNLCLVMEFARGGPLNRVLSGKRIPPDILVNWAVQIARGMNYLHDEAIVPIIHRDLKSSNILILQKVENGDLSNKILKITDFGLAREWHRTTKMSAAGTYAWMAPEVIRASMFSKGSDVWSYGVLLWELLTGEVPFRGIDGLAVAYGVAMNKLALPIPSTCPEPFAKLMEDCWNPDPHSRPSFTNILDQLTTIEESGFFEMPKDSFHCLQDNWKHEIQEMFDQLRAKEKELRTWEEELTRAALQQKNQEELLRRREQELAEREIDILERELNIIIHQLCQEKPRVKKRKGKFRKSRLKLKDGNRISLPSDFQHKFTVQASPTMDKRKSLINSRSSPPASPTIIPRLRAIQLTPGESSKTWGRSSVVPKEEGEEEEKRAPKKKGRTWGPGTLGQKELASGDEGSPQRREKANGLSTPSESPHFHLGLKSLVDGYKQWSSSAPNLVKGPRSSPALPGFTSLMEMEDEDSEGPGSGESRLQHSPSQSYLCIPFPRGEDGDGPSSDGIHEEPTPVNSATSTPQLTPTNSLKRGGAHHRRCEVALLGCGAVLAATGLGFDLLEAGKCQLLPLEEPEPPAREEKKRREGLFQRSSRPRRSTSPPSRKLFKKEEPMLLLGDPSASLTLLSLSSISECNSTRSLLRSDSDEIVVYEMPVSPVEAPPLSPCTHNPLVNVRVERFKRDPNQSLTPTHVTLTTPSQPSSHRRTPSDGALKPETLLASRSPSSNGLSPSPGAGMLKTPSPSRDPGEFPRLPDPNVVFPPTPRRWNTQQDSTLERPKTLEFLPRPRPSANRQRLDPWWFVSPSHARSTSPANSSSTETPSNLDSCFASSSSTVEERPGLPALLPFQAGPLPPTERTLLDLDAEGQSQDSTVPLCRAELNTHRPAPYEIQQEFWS
Chain of MLK3 (Q16584 whole entry, species assumed): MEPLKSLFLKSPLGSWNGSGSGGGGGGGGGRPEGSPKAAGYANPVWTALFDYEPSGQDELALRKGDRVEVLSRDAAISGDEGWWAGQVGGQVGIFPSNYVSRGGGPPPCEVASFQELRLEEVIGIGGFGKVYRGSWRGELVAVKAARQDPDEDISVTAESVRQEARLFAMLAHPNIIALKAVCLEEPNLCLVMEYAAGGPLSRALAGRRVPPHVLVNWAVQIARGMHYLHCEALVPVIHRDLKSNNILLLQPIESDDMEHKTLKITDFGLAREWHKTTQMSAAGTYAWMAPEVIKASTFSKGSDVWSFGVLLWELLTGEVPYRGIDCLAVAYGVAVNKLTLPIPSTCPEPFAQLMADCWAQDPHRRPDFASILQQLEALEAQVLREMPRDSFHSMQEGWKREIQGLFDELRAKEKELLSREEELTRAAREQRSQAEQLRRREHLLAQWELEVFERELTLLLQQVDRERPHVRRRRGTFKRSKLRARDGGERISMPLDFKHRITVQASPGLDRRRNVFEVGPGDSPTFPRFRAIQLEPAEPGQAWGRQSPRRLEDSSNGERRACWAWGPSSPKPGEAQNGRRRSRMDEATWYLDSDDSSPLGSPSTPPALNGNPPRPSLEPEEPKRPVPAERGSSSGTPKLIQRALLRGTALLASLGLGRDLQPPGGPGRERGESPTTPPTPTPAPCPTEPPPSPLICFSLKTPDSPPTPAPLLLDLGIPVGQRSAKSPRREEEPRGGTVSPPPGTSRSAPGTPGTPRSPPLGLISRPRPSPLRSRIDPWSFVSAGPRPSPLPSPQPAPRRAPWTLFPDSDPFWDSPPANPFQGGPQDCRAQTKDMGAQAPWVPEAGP

With `Nc1n[nH]c2nc(-c3ccc(NS(=O)(=O)c4cc(Cl)ccc4Cl)cc3)cnc12` [14h], the IC50 in assay [1] is 215 nM; in assay [2], 4 nM; in assay [3], greater than 10000 nM; in assay [5] it was 76 nM; in assay [6], 84 nM. In addition, the “reduction of SGK3 activity and phosphorylation” value in assay [4] (0.1 μM 14h) is recorded as ~ 80%. In assay [4] (1 μM 14h), the “SGK3 activity and phosphorylation” value is “undetectable”.
`NC1(c2ccc(-c3nc4ccn5c(=O)[nH]nc5c4cc3-c3ccccc3)cc2)CCC1` [MK-2206]: the “number of apoptotic (cleaved caspase-3 positive) cells in tumours” value in assay [7] is “increased number of apoptotic cells”.
